One assay has as its target T1, FLT3 kinase (Homo sapiens, UniProt P36888).
T1 construct: made in house; host or cells: T7 phage display or HEK-293 cells
T1 sequence (P36888 27-993): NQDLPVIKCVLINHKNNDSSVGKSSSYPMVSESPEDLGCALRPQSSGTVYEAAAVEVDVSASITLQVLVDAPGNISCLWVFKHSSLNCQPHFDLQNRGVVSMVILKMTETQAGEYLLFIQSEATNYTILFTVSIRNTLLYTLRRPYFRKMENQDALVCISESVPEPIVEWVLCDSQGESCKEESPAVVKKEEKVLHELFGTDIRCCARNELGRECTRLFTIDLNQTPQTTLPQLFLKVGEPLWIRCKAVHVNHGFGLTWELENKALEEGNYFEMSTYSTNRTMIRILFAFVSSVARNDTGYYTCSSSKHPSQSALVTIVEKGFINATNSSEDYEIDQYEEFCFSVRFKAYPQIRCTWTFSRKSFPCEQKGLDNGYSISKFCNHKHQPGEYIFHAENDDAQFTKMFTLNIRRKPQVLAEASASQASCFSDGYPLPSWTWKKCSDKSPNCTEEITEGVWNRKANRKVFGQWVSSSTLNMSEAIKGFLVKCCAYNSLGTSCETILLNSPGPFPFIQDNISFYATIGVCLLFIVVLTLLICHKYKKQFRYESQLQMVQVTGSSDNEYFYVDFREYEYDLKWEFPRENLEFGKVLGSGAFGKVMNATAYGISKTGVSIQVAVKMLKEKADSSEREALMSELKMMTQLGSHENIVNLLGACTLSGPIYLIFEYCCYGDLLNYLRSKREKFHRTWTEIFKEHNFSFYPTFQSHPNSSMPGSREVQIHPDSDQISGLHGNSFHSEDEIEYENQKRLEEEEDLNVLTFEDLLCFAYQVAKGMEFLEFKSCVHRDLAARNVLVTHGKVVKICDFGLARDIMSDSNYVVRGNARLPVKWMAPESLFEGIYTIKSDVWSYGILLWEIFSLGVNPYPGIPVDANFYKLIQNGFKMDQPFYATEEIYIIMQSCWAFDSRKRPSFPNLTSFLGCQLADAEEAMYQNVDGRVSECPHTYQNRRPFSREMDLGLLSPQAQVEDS
In words: Competition binding assay, FLT3 Kd. How it is done: (§1) In certain embodiments, competition binding assays were performed as described in Fabian et al., Nature Biotechnology 2005, 23,329-336.
(§2) Competition binding assays used herein were developed, validated and performed as described in Fabian et al., Nature Biotechnology 2005, 23,329-336. Kinases were produced as fusions to T7 phage (See, Fabian et al. or WO04/015142) or alternatively, the kinases were expressed in HEK-293 cells and subsequently tagged with DNA for PCR detection (See, WO08/005,310). For the binding assays, streptavidin-coated magnetic beads were treated with biotinylated affinity ligands for 30 min at room temperature to generate affinity resins. The liganded beads were blocked with excess biotin and washed with blocking buffer (SeaBlock (Pierce), 1% BSA, 0.05% Tween 20, 1 mM DTT) to remove unbound ligand and to reduce non-specific binding. Binding reactions were assembled by combining kinase, liganded affinity beads, and test compounds in 1× binding buffer (20% SeaBlock, 0.17×PBS, 0.05% Tween 20, 6 mM DTT). Test compounds were prepared as 100× stocks in DMSO and diluted into the aqueous environment. Kds were determined using an eleven point threefold serial dilutions. DMSO or control compounds were was added to control assays lacking a test compound. Primary screen assays were performed in polypropylene 384-well plates in a final volume of 20-40 μL, while Kd determinations were performed in polystyrene 96-well plates in a final volume of 135 μL. The assay plates were incubated at room temperature with shaking for 1 hour to allow the binding reactions to reach equilibrium, and the affinity beads were washed extensively with wash buffer (1×PBS, 0.05% Tween 20) to remove unbound protein. The beads were then resuspended in elution buffer (1×PBS, 0.05% Tween 20, 0.5 μM non-biotinylated affinity ligand) and incubated at room temperature with shaking for 30 min. The kinase concentration in the eluates was measured by quantitative PCR.

Another assay concerns the target T2, KIT kinase (Homo sapiens, UniProt P10721).
T2 construct: made in house; host or cells: T7 phage display or HEK-293 cells
Put plainly: Competition binding assay, KIT Kd. As for the experimental part: as §1, §2

The target of the next assay is T3, CSF-1R kinase (Homo sapiens, UniProt P07333).
T3 construct: made in house; host or cells: T7 phage display or HEK-293 cells
T3 sequence (P07333 20-972): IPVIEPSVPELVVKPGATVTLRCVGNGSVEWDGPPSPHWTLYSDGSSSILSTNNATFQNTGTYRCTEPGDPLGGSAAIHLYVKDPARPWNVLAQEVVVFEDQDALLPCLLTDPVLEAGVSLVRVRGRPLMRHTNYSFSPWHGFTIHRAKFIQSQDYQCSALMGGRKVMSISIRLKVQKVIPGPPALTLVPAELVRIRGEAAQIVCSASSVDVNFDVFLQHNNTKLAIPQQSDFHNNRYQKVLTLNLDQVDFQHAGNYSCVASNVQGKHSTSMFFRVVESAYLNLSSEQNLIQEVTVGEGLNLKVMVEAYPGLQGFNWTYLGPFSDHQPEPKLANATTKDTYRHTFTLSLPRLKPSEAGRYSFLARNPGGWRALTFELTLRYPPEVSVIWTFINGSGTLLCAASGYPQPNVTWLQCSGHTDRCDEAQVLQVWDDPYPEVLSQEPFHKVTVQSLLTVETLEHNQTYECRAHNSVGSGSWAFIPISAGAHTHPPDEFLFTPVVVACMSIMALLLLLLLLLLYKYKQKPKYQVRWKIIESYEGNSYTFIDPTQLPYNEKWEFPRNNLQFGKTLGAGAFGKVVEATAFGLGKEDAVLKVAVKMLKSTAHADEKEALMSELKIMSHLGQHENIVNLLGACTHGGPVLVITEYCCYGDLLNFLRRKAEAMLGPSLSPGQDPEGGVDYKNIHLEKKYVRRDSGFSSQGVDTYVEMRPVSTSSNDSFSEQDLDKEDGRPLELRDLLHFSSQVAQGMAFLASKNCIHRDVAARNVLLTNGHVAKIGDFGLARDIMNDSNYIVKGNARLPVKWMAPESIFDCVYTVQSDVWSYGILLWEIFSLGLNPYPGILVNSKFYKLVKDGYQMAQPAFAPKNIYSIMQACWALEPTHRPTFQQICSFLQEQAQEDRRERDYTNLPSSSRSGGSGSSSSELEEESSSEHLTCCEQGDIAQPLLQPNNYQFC
In words: Competition binding assay, CSF-1R Kd. How it is done: as §1, §2

A further assay concerns MV4-11 cells. Put plainly: MV4-11 cell proliferation assay (Alamar Blue). It counts as cell-based. The conditions noted are these: Homo sapiens, MV4-11, 72 h, 3 days incubation. As for the experimental part: The compounds disclosed herein were tested in an MV4-11 cell proliferation assay to determine their cellular potency against Flt3. MV4-11 cells carry ITD mutation within juxtamembrane domain of Flt3 kinase which renders the kinase constitutively active. […] This assay measures the potency of compounds as Flt3 inhibitors by measuring the reduction of Alamar Blue reagent by viable cells.
MV4-11 cells were grown in an incubator at 37° C. under 5% CO2 in Iscove's media (Celgro) with 10% FBS. The cell density was kept between 1e5 and 8e5 cells/mL.
On day one of the experiment, cells were harvested and spun at 500 g for 5 min at 4° C., the supernatant aspirated and the cells resuspended in Iscove's media with 0.5% FBS. Cell density was maintained at 7.5e5 to achieve maximum viability of the cells. The resuspended cells were incubated at 37° C. in 5% CO2 overnight.
On day two of the experiment, cells were diluted to 6.4e5/mL with Iscove's media with 0.5% FBS. 100 μL of the cell suspension (64,000 cells) were aliquoted into each well of a 96-well TC-treated plate. Compounds were added at 9 different concentrations, with half-log intervals alongside a control reference compound serving as a positive control. Final DMSO concentration was kept at 0.5% and final volume at 200 μL. The cells were then incubated at 37° C. under 5% CO2 for 3 days.
On day five of the experiment, 40 μL of Alamar Blue reagent was added to each well and the mixture was allowed to incubate for 3 hours. Alamar Blue fluorescence was measured using SoftMax Pro software at 560 nm (excitation) and 590 nm (emission). IC50s were generated as an average of duplicates and represents the concentration of test compound that achieves 50% inhibition of cellular proliferation compared to negative control.
Background: The colour change of resazurin is a common sign of viable cells or microbes.

The Kd is the free concentration of one partner at which half of the binding sites on the other are occupied at equilibrium, for simple one-to-one binding. Broadly, the IC50 is the concentration that inhibits the measured activity by half.

A value given as a limit tells only on which side of the number the result lay.

T2 sequence (P10721 26-976): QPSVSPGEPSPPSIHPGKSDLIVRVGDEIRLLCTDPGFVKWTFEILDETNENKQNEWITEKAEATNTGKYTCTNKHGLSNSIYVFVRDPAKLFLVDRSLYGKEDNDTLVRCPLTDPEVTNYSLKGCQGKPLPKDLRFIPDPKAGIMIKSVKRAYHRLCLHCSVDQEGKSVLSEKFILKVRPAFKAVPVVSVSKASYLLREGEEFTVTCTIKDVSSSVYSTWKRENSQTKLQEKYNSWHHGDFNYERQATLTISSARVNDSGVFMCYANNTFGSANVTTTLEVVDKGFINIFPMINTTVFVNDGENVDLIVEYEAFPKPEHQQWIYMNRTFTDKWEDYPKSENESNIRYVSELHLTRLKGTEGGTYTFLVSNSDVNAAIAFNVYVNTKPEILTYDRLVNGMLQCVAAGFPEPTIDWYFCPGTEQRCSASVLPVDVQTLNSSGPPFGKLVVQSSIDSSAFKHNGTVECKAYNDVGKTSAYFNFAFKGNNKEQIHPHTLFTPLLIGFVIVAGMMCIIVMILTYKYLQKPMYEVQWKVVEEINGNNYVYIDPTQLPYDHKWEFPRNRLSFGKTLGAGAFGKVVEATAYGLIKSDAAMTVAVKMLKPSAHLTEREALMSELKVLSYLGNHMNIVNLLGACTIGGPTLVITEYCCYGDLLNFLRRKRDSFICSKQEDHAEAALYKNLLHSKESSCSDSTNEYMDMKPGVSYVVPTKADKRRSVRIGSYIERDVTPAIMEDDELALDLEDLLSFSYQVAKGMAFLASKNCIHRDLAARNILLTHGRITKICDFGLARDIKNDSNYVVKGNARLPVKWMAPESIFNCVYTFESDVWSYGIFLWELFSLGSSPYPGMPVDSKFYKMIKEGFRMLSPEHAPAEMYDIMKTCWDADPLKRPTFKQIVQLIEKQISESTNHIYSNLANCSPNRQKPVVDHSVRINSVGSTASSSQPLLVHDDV

Turning to `CC(C)(C)c1cc(NC(=O)Cc2ccc(-c3ccc(N)nc3)cc2)on1` [Example 84, 5-(4-(2-(3-tert-butylisoxazol-5-ylamino)-2-oxoethyl)phenyl)pyridin-2-aminium methanesulfonate], the dissociation constant Kd was ≤ 1 nM on FLT3 kinase, 1 to 10 nM on KIT kinase and ≤ 10 nM on CSF-1R kinase. Also, in the assay on MV4-11 cells, the IC50 is ≤ 1 nM.

Turning to `Cc1cc(-c2ccc(CC(=O)Nc3cc(C(C)(C)C)on3)cc2)cnc1N` [Example 85, 5-(4-(2-(5-tert-butylisoxazol-3-ylamino)-2-oxoethyl)phenyl)-3-methylpyridin-2-aminium methanesulfonate], the Kd on FLT3 kinase was ≤ 1 nM; at KIT kinase, 1 to 10 nM; on CSF-1R kinase, ≤ 10 nM. Besides, the IC50 in the assay with MV4-11 cells is ≤ 1 nM.

On to `CC(C)(C)c1cc(NC(=O)C(O)c2ccc(-c3ccc(N)nc3)cc2)no1` (centres unmarked) [Example 182], for which the Kd on FLT3 kinase lay within 1 to 10 nM; on KIT kinase it was 1 to 10 nM; on CSF-1R kinase it was 10 to 100 nM. Also, the IC50 in the assay on MV4-11 cells was in the range of 1 to 10 nM.

As for `CN1CCCC1CCNc1ccc(-c2ccc(NC(=O)Nc3cc(C(C)(C)C)on3)cc2)cn1` (centres unmarked) [Example 29, 1-(5-tert-butylisoxazol-3-yl)-3-(4-(6-(2-(1-methylpyrrolidin-2-yl)ethylamino)pyridin-3-yl)phenyl)urea], the Kd on FLT3 kinase is ≤ 1 nM; at KIT kinase it was ≤ 1 nM; on CSF-1R kinase, ≤ 10 nM. In the assay on MV4-11 cells, the half-maximal inhibitory concentration (IC50) was in the range of 1 to 10 nM.

As to `CC(C)(C)c1cc(NC(=O)Cc2ccc(-c3cnc(N)cc3F)cc2)on1` [Example 183], the dissociation constant (Kd) was ≤ 1 nM on FLT3 kinase, 1 to 10 nM on KIT kinase and ≤ 10 nM on CSF-1R kinase. The IC50 in the assay with MV4-11 cells is ≤ 1 nM.

Take `Cn1[nH]c2ncc(-c3ccc(CC(=O)Nc4cc(C(C)(C)C)on4)cc3)cc2c1=O` [Example 181]: the Kd at FLT3 kinase lay within 1 to 10 nM; at KIT kinase, 10 to 100 nM; at CSF-1R kinase it was 10 to 100 nM. In the assay with MV4-11 cells, this compound yielded an IC50 of 1 to 10 nM.

On to `CC1(c2cc(NC(=O)Cc3ccc(-c4cc(F)c(N)nc4F)cc3)no2)CC1` [Example 177], for which the Kd at FLT3 kinase is ≤ 1 nM; on KIT kinase, 1 to 10 nM; on CSF-1R kinase, ≤ 10 nM. Also, the IC50 with MV4-11 cells was ≤ 1 nM.

For the compound `CC1(c2cc(NC(=O)Cc3ccc(-c4ccc(NCCS(C)(=O)=O)nc4)cc3)no2)CC1` [Example 185], the Kd on FLT3 kinase is ≤ 1 nM; at KIT kinase, ≤ 1 nM; on CSF-1R kinase, ≤ 10 nM. The compound further yielded an IC50 in the assay with MV4-11 cells of 1 to 10 nM.

Turning to `CC(F)(F)C1(c2cc(NC(=O)Cc3ccc(-c4cnc(N)cc4F)cc3)no2)CC1` [Example 184], the figures for the Kd on FLT3 kinase, at KIT kinase and on CSF-1R kinase were ≤ 1 nM, 1 to 10 nM and ≤ 10 nM, respectively. Also, the IC50 in the assay with MV4-11 cells was ≤ 1 nM.

Regarding `CC(C)(C)Sc1cc(-c2ccc(CC(=O)Nc3cc(C(C)(C)C)on3)cc2)cnc1N` [Example 175], the values for the Kd at FLT3 kinase, on KIT kinase and on CSF-1R kinase were 1 to 10 nM, 10 to 100 nM and 100 to 500 nM, respectively. Further, in the assay on MV4-11 cells, the IC50 was in the range of 10 to 100 nM.

Take `CC(C)(c1cc(NC(=O)Nc2ccc(-c3ccc(NCCN4CCOCC4)nc3)cc2)no1)C(F)(F)F` [Example 39, 4-(2-(5-(4-(3-(5-(1,1,1-trifluoro-2-methylpropan-2-yl)isoxazol-3-yl)ureido)phenyl)pyridin-2-ylamino)ethyl)morpholin-4-ium methanesulfonate]: the Kd was ≤ 1 nM on FLT3 kinase, 1 to 10 nM on KIT kinase and ≤ 10 nM on CSF-1R kinase. The IC50 in the assay with MV4-11 cells is 1 to 10 nM.

On to `CS(=O)(=O)O.Cc1cc(-c2ccc(CC(=O)Nc3cc(C4(C(F)(F)F)CC4)on3)cc2)cnc1N` [Example 130, 3-methyl-5-(4-(2-oxo-2-(5-(1-(trifluoromethybcyclopropybisoxazol-3-ylamino)ethyl)phenyl)pyridin-2-aminium methanesulfonate], for which the results for the Kd on FLT3 kinase, on KIT kinase and at CSF-1R kinase were ≤ 1 nM, 1 to 10 nM and ≤ 10 nM, respectively. The IC50 with MV4-11 cells was ≤ 1 nM.

As to `CC(C)(c1cc(NC(=O)Cc2ccc(-c3ccc(N)nc3)cc2)no1)C(F)(F)F` [Example 72, 5-(4-(2-oxo-2-(5-(1,1,1-trifluoro-2-methylpropan-2-yl)isoxazol-3-ylamino)ethyl)phenyl)pyridin-2-aminium acetate], the figures for the Kd at FLT3 kinase, on KIT kinase and on CSF-1R kinase were ≤ 1 nM, 1 to 10 nM and ≤ 10 nM, respectively. Further, the IC50 in the assay on MV4-11 cells is ≤ 1 nM.

`Cc1cc(N)ncc1-c1ccc(CC(=O)Nc2cc(C(C)(C)C)on2)cc1` [Example 86, 5-(4-(2-(5-tert-butylisoxazol-3-ylamino)-2-oxoethyl)phenyl)-4-methylpyridin-2-aminium methanesulfonate]: the Kd was ≤ 1 nM at FLT3 kinase, 1 to 10 nM at KIT kinase and 10 to 100 nM on CSF-1R kinase. The compound further came in with an IC50 with MV4-11 cells of 10 to 100 nM.

On to `COc1cc(-c2ccc(N)nc2)ccc1NC(=O)Nc1cc(C(C)(CF)CF)on1` [Example 68, 5-(4-(3-(5-(1,3-difluoro-2-methylpropan-2-yl)isoxazol-3-yl)ureido)-3-methoxyphenyl)pyridin-2-aminium methanesulfonate], for which the figures for the Kd at FLT3 kinase, at KIT kinase and at CSF-1R kinase were 1 to 10 nM, 1 to 10 nM and ≤ 10 nM, respectively. Besides, in the assay on MV4-11 cells, the IC50 fell in the range of 10 to 100 nM.

Regarding `CC(C)(CO)c1cc(NC(=O)Nc2ccc(-c3ccc(N)nc3)cc2)no1` [Example 80, 1-(4-(6-aminopyridin-3-yl)phenyl)-3-(5-(1-hydroxy-2-methylpropan-2-yl)isoxazol-3-yl)urea], the values for the Kd at FLT3 kinase, at KIT kinase and at CSF-1R kinase were ≤ 1 nM, ≤ 1 nM and ≤ 10 nM, respectively. This compound also displayed an IC50 with MV4-11 cells of 1 to 10 nM.

`CC(C)c1cc(NC(=O)Cc2ccc(-c3ccc(N)nc3)cc2)no1` [Example 186]: the Kd is ≤ 1 nM on FLT3 kinase, ≤ 1 nM at KIT kinase and ≤ 10 nM on CSF-1R kinase. Also, the IC50 with MV4-11 cells is ≤ 1 nM.

The values above are taken from patent publication US20130035326A1 (AMBIT BIOSCIENCES CORPORATION, priority 2009, published 2013).
